Source: PubChem BioAssay AID1241 (SRMLSC, 2008)

experiment: compounds inducing NF-kB luciferase expression – cell-based, SH-SY5Y, dose response (AID 1241); conditions: SH-SY5Y NF-kB promoter luciferase reporter, fold induction

`COc1ccc(-c2cn3c4c(sc3n2)CCCC4)cc1` and `Cc1ccc(NC(=O)c2scc3c2CCCC3)cc1` are within 1.5-fold of each other in EC50: 650 nM for the first, 714 nM for the second.

First: O=C(O)c1ccc(/C=N/Nc2ccc(F)cc2F)cc1
Second: CC(C)c1ccc(/C=N/NC(=O)c2cccc(Cl)c2)cc1
The EC50 of the first is 23-fold lower: 1230 nM for the first, 28800 nM for the second. The first is the more potent here.

Compared with `CCn1c(/C=C/c2ccccc2)nc2ccccc21`, `C(=N\Nc1ncnc2ccccc12)/c1ccccc1` is 2.6-fold higher in EC50: 1580 nM for the first, 4030 nM for the second.

Compared with `Cc1sc(NC(=O)c2ccc(Cl)s2)c(C(N)=O)c1C`, `O=C(Nc1ccc2sccc2c1)c1ccc(Cl)s1` is 3.3-fold lower in EC50: 1700 nM for the first, 511 nM for the second.

Compared with `CCNc1nc(N)nc(-c2cc(Cl)ccc2O)n1`, `Cc1ccc(Nc2nc(-c3ccc(O)c(O)c3)cs2)nc1` is 7.9-fold higher in EC50: 847 nM for the first, 6730 nM for the second. The first is the more potent here.

Going from `Cn1ccc(C(=O)Nc2ccc(Br)cc2Br)n1` to `Cc1ccc(NC(=O)c2ccn(C)n2)c(Br)c1`, the EC50 falls from 29500 nM to 8250 nM (3.6-fold). The second is the more potent here.

Going from `COC(=O)CSc1nc2cc3c(cc2cc1C#N)OCO3` to `COC(=O)CSc1nc(-c2cccs2)ccc1C#N`, the EC50 rises from 997 nM to 5620 nM (5.6-fold). The first is the more potent here.

Going from `Cc1ccccc1/C=C1\CCCc2ccccc2C1=O` to `O=C1C=C(Nc2ccccc2)C(=O)c2ccccc21`, the EC50 falls from 24900 nM to 1350 nM (18-fold). The second is the more potent here.

Compared with `CCCCOC(=O)Nc1ccc(N2CCCCC2)cc1`, `N#C/C(=N\Nc1ccc(F)cc1)C(=N)N1CCCCC1` is 6.9-fold lower in EC50: 20500 nM for the first, 2970 nM for the second. The second is the more potent here.

First: Cc1ccc(NC(=O)COc2ccccc2C=O)cc1Cl
Second: Cc1ccnc(NC(=O)/C=C/c2ccccc2Cl)c1
The EC50 of the first is 2.7-fold lower: 3880 nM for the first, 10400 nM for the second. The first is the more potent here.

First: Cc1ccsc1C(=O)N/N=C/c1ccc2c(c1)OCO2
Second: O=C(Nc1nc2ccccc2s1)c1ccc2c(c1)OCO2
The EC50 of the first is 8.3-fold higher: 1140 nM for the first, 138 nM for the second. The second is the more potent here.

Compared with `Cc1cc(N)n2nc(-c3ccccc3)cc2n1`, `CCc1ccc(-c2cc(N)n(-c3ccccc3)n2)cc1` is 1.6-fold higher in EC50: 10000 nM for the first, 16400 nM for the second. The first is the more potent here.

Compared with `O=S(=O)(c1ccc(Cl)cc1)c1snnc1-c1ccccc1`, `Nc1c(C(=O)Nc2ccc(Cl)cc2)oc2ccccc12` is 4.7-fold higher in EC50: 2330 nM for the first, 11000 nM for the second.

First: Cc1ccc(OCCSc2ncccn2)c(C)c1
Second: Cc1ccnc(NC(=O)Nc2cccc(F)c2)c1
The EC50 of the first is 8.9-fold higher: 5420 nM for the first, 608 nM for the second.

First: COc1c(C)cccc1C(=O)Nc1ccc(N2CCOCC2)c(Cl)c1
Second: O=C(Nc1ccc2c(c1)CCC2)c1ccccc1F
The EC50 of the first is 7.4-fold higher: 13400 nM for the first, 1800 nM for the second. The second is the more potent here.

Compared with `Cc1ccc(-c2nc3cc(N)ccc3o2)cc1`, `COC(=O)c1ccc(-c2nc3ccc(C)cc3o2)cc1` is 1.5-fold higher in EC50: 2170 nM for the first, 3300 nM for the second.

First: O=C(Nc1nc(-c2nc3ccccc3s2)cs1)C1CC1
Second: Cc1nnc(SCC(=O)Nc2ccc(-c3nc4ccccc4s3)cc2)s1
The EC50 of the first is 48-fold higher: 15600 nM for the first, 328 nM for the second.

Going from `CN1CCN(Cc2cc(COCc3ccccc3)c3cccnc3c2O)CC1` to `Cn1cccc1C(=O)OCc1csc(-c2ccccc2)n1`, the EC50 falls from 11000 nM to 768 nM (14-fold).

`Cc1ccc2nc(-c3ccc(NC(=O)COC(=O)c4cncc(Br)c4)cc3)sc2c1` and `Cc1ccc2nc(-c3ccc(NC(=O)COC(=O)c4ccc([N+](=O)[O-])o4)cc3)sc2c1` are within 1.5-fold of each other in EC50: 393 nM for the first, 437 nM for the second.

Compared with `N#CC1(c2ccc(NC(=O)c3ccccc3F)cc2)CCCC1`, `O=C(/C=C/Nc1ccccc1F)c1ccc(Br)cc1` is 1.8-fold lower in EC50: 1080 nM for the first, 595 nM for the second.

Going from `Clc1c(CSc2nc3ccccc3o2)nc2sccn12` to `O=C(CSc1ncnc2ccccc12)c1ccco1`, the EC50 rises from 2410 nM to 4150 nM (1.7-fold). The first is the more potent here.

First: CCOc1cc(/C=N/Nc2cccc(C(=O)O)c2)ccc1OC(=O)c1ccccc1
Second: CC(=O)Oc1ccc(Cl)cc1/C=C/c1ccc2ccccc2n1
The EC50 of the first is 4.8-fold higher: 4000 nM for the first, 836 nM for the second. The second is the more potent here.

Compared with `CC(=O)c1cnc2cc(-c3ccc(C)cc3)nn2c1C`, `CCC(=O)Oc1ccc(-c2cnc3ccccc3n2)cc1` is 6.5-fold higher in EC50: 3260 nM for the first, 21200 nM for the second. The first is the more potent here.

Compared with `O=C(NC(=S)Nc1ccc2c(c1)OCO2)c1ccccc1`, `CC1CC1C(=O)OCC(=O)Nc1ccc(N=Nc2ccccc2)cc1` (configuration not stated) is 2.7-fold higher in EC50: 5700 nM for the first, 15400 nM for the second. The first is the more potent here.

First: CC(C(=O)O)c1ccc(N2Cc3ccccc3C2=O)cc1 (configuration not stated)
Second: Clc1ccc(-c2cn3c(n2)-c2ccccc2C3)cc1Cl
The EC50 of the first is 1.8-fold higher: 1520 nM for the first, 861 nM for the second.

First: Cc1ccc(NC(=O)c2ccc3ccccc3n2)nc1
Second: CCCOc1ccc(C(=O)Nc2ccc(Cl)cn2)cc1
The EC50 of the first is 3.8-fold higher: 4110 nM for the first, 1090 nM for the second. The second is the more potent here.

First: CC1CCN(C(=O)c2cc(-c3ccccc3O)on2)CC1
Second: CC(=O)N(/N=C1\Sc2ccccc2C1=O)c1cccc(C)c1
The EC50 of the first is 2.5-fold lower: 8790 nM for the first, 22300 nM for the second. The first is the more potent here.

`COc1ccc(C2CC(c3c(O)cc(C)oc3=O)=NCCS2)c(OC)c1` (configuration not stated) and `COc1ccc2c(c1OC)C(=O)OC2Nc1nc(-c2cc3ccccc3oc2=O)cs1` (configuration not stated) are within 1.5-fold of each other in EC50: 2330 nM for the first, 2100 nM for the second.

Going from `CCCCc1ccc(NC(=O)c2cnccn2)cc1` to `CCCCc1ccc(-c2ccc(Br)cc2O)nc1`, the EC50 rises from 250 nM to 3360 nM (13-fold). The first is the more potent here.

Compared with `Cc1nn(C)cc1/C=C/C(=O)c1ccccc1`, `CCCCn1cnc2sc(-c3ccccc3)cc2c1=O` is 4.4-fold higher in EC50: 2750 nM for the first, 12000 nM for the second. The first is the more potent here.

First: N#C/C(=C\c1ccc(OCc2ccc(C(=O)O)cc2)cc1)C(=O)N1CCOCC1
Second: CCOC(=O)c1ccc(Nc2ncccc2[N+](=O)[O-])cc1
The EC50 of the first is 4.3-fold higher: 12100 nM for the first, 2820 nM for the second.

Going from `Cc1ccc(-c2cc(-c3cccs3)[nH]n2)c(O)c1` to `Cc1ccc(/C=C(\C#N)c2nc3ccccc3[nH]2)s1`, the EC50 falls from 13100 nM to 637 nM (21-fold).

Going from `CC(=Nc1ccc(O)cc1)c1sc2ccccc2c1O` to `Nc1nc(Nc2ccccc2)nc2ccccc12`, the EC50 falls from 2160 nM to 1380 nM (1.6-fold).

`Cc1cccc(Nc2nc(-c3ccccn3)cs2)n1` showed an EC50 of 1190 nM.
